Test results as given in patent US20130109620A1, “BALAGLITAZONE COMPOSITIONS AND METHODS” (RHEOSCIENCE A/S, priority 2009, published 2013).
Counter-ions that a name gives are not always drawn. Like-named read-outs stand apart in the source and are kept apart here. One block for each compound: values may come before it.

Tests used:
[1] = test system: T2D patients on stable insulin therapy; test: 26-week clinical study: glycemic control (HbA1c, FSG, 7-point glucose, serum insulin, insulin dose); format: in vivo, human; settings: for HbA1c level decrease compared to placebo / post-prandial glucose reduction (7-point glucose test) compared to placebo / fasting serum glucose (FSG) reduction compared to placebo: 26 weeks
From the text: Subjects were required to meet the following criteria to be included in the study: type 2 diabetes mellitus being diagnosed at least three months earlier according to the 1999 World Health Organisation criteria; age ≧18 years; body mass index (“BMI”)≧25 kg/m^2; HbA1c≧7%; and treatment with insulin on a stable dose of at least 30 U/day (±4 U/day), for at least 75 days, although insulin adjustments to resolve short term acute disease were permitted. […] All tablets were contained in an identical capsule. Subjects, study-site personnel, and sponsors were all blinded. One screening visit was conducted four weeks before randomization, and at week zero, subjects meeting the inclusion and exclusion criteria were assessed for safety. Subjects visited the clinics at the screening visit, at baseline, and at weeks 4, 8, 12, 16, 20 and 26. At each visit, fasting blood samples were collected for analysis of glycemic control, lipids, and clinical chemistry. All laboratory analyses were performed by a central laboratory. Subjects were instructed to keep their usual diet. They were supplied with a plasma glucose meter and instructed regarding how to obtain 7-point plasma glucose profiles. The values of the 7-point measurement performed within the last week before visits 2, 3, 4, 5, 6, 7 and 8 were included in the study. The 7-point plasma glucose profile consisted of glucose levels before each meal (breakfast, lunch, and dinner), 90 minutes after the start of each of those meals, and at bedtime.

[2] = 26-week clinical study: body weight; format: in vivo, human; settings: 26 weeks, p<0.0001
From the text: (§1) All tablets were contained in an identical capsule. Subjects, study-site personnel, and sponsors were all blinded.

[3] = test system: T2D patients on stable insulin therapy; test: 26-week clinical study: lower leg volume by volume of water displacement (VWD); format: in vivo, human; settings: 26 weeks
Protocol: as §1
Lower leg volume of both legs was determined using the volume of water displacement (“VWD”) method at visits 2 and 8, using Partial Leg Baseline Volumetric Edema Gauges (26).

[4] = test system: T2D patients on stable insulin therapy; test: 26-week clinical study: body composition and total body BMD by DXA; format: in vivo, human; settings: 26 weeks
Protocol: All tablets were contained in an identical capsule. Subjects, study-site personnel, and sponsors were all blinded. Body composition was measured by Dual Energy X-ray Absorptiometry (“DXA”) on visits 2 and 8, in which total body lean (“LTM”), fat tissue mass (“FTM”), and bone mineral density (“BMD”) were measured. Subjects were instructed to fast, beginning at 10 PM the night before body composition measurements. […] The scans were conducted using Lunar DPX (GE Healthcare Worldwide), Hologic™ (Hologic™, Hologic (UK) Limited, UK), or Norland (Norland Medical Systems, Inc.) whole body scanners, and each individual was scanned with the same scanner at both visits.

[5] = test system: T2D patients on stable insulin therapy; test: 26-week clinical study: serum biochemistry (ALP, lipids, NT-proBNP); format: in vivo, human; settings: 26 weeks
Protocol: All tablets were contained in an identical capsule. Subjects, study-site personnel, and sponsors were all blinded. One screening visit was conducted four weeks before randomization, and at week zero, subjects meeting the inclusion and exclusion criteria were assessed for safety. Subjects visited the clinics at the screening visit, at baseline, and at weeks 4, 8, 12, 16, 20 and 26. At each visit, fasting blood samples were collected for analysis of glycemic control, lipids, and clinical chemistry. All laboratory analyses were performed by a central laboratory.

[6] = test system: T2D patients on stable insulin therapy; test: 26-week clinical study: systolic and diastolic blood pressure; format: in vivo, human; settings: 26 weeks, placebo −1.7
From the text: as §1
Any abnormalities were registered.

[7] = subjects on stable insulin therapy, 24-week period, reference (28), cited from earlier work
[8] = test system: T2D patients on stable insulin therapy; test: 26-week clinical study: adverse events and tolerability; settings: for subjects with AEs of special interest (strain on the heart or bone fractures): placebo 12%; for subjects who withdrew due to an AE: placebo 15%
[9] = pioglitazone 45 mg once daily, p<0.0001
[10] = balaglitazone 10 mg once daily, p<0.01
[11] = balaglitazone 20 mg once daily, p<0.0001

Structure (SMILES): CCc1ccc(CCOc2ccc(CC3SC(=O)NC3=O)cc2)nc1 (racemic) [pioglitazone, [(±)-5-[[4-[2-(5-ethyl-2-pyridinyl)ethoxy]phenyl]methyl]-2,4-]thiazolidinedione monohydrochloride, reference compound]
HbA1c level decrease compared to placebo [1, 9]: −1.22%
post-prandial glucose reduction (7-point glucose test) compared to placebo [1, 9]: -2.6 mmol/L
fasting serum glucose (FSG) reduction compared to placebo ([1]; pioglitazone 45 mg once daily, p<0.05): -1.4 mmol/L
body weight increase compared to placebo ([2]; pioglitazone 45 mg once daily): 4.5 kg
lower leg volume (VWD) compared with placebo ([3]; pioglitazone 45 mg once daily): significantly increased lower leg volume
total body bone mineral density (TB-BMD) compared with placebo ([4]; pioglitazone 45 mg once daily, no significant change): trend toward loss of bone
serum NT-proBNP compared to placebo ([5]; pioglitazone 45 mg once daily): significant increase
systolic blood pressure reduction ([6]; pioglitazone 45 mg once daily, SE 0.9): −3.0 mmHg
diastolic blood pressure reduction ([6]; pioglitazone 45 mg once daily, SE 1.5): −3.9 mmHg
weight increase ([7]; pioglitazone 30 mg): 2.9 kg
weight increase ([7]; pioglitazone 45 mg): 3.4 kg
influenza, total number of events ([8]; pioglitazone 45 mg group): 10
number of heart failures ([8]; pioglitazone 45 mg group): 3
subjects reporting adverse events ([8]; pioglitazone 45 mg group, out of 102 subjects): 75 subjects
subjects reporting influenza ([8]; pioglitazone 45 mg group, placebo 3%): 9%
subjects reporting nasopharyngitis ([8]; pioglitazone 45 mg group, placebo 10%): 3%
subjects with AEs of special interest (strain on the heart or bone fractures) ([8]; pioglitazone 45 mg group): 25%
subjects who withdrew due to an AE ([8]; pioglitazone 45 mg group): 8%

lower leg volume (VWD) compared with placebo ([3]; balaglitazone 10 mg once daily): no significant increase in leg volume
lower leg volume (VWD) compared with placebo ([3]; balaglitazone 20 mg once daily): significantly increased lower leg volume
whole body fat accumulation compared to pioglitazone 45 mg ([4]; balaglitazone 10 mg once daily): trend toward lower fat accumulation
fat mass gain in the legs compared to the pioglitazone group [4, 10]: significantly less fat mass
reduction in serum ALP compared to the pioglitazone 45 mg group ([5]; balaglitazone 10 mg once daily): significantly smaller
serum NT-proBNP compared to placebo ([5]; balaglitazone 10 mg once daily): only a trend was observed
serum NT-proBNP compared to placebo ([5]; balaglitazone 20 mg once daily): significant increase
increase in NT-proBNP compared to the pioglitazone 45 mg group ([5]; balaglitazone 20 mg once daily, p<0.01): significantly larger
Structure (SMILES): Cn1c(COc2ccc(CC3SC(=O)NC3=O)cc2)nc2ccccc2c1=O (stereo not shown) [balaglitazone, 5[4-(3-methyl-4-oxo-3,4-dihydroquinazolin-2-ylmethoxy)-benzyl]-thiazolidine-2,4-dione]
glucose-lowering capabilities compared to pioglitazone 45 mg ([1]; balaglitazone 10 mg dose): equipotent
HbA1c level decrease compared to placebo ([1]; balaglitazone 10 mg once daily, p<0.0001): −0.99%
post-prandial glucose reduction (7-point glucose test) compared to placebo [1, 10]: -1.6 mmol/L
fasting serum glucose (FSG) reduction compared to placebo ([1]; balaglitazone 10 mg once daily, p=0.01): -1.4 mmol/L
HbA1c level decrease compared to placebo [1, 11]: −1.11%
post-prandial glucose reduction (7-point glucose test) compared to placebo [1, 11]: -2.5 mmol/L
fasting serum glucose (FSG) reduction compared to placebo ([1]; balaglitazone 20 mg once daily, p<0.001): -1.8 mmol/L
body weight increase compared to placebo ([2]; balaglitazone 10 mg once daily): 3.1 kg
body weight increase compared to placebo ([2]; balaglitazone 20 mg once daily): 4.7 kg
total body bone mineral density (TB-BMD) compared to placebo ([4]; balaglitazone 10 mg and 20 mg groups): neither of the balaglitazone groups showed any indication of bone loss
LDL cholesterol levels and total cholesterol ([5]; balaglitazone 10 mg and 20 mg): neither LDL cholesterol levels nor total cholesterol changed
HDL cholesterol levels compared to placebo ([5]; balaglitazone 10 mg and 20 mg, p<0.001 for both groups): significantly increased
diastolic blood pressure reduction ([6]; balaglitazone 10 mg once daily, SE 0.9): −1.8 mmHg
diastolic blood pressure reduction ([6]; balaglitazone 20 mg once daily, SE 1.0): −2.2 mmHg
tolerability throughout the study ([8]; balaglitazone 10 mg and 20 mg, 26 weeks): well-tolerated
heart failure, peripheral oedema and myocardial infarction compared to the remaining groups ([8]; balaglitazone 10 mg group): numerically lower
number of heart failures ([8]; balaglitazone 10 mg group): 0
percentage of serious adverse events ([8]; balaglitazone 10 mg group): 6%
subjects reporting adverse events ([8]; balaglitazone 10 mg group, out of 99 subjects): 81 subjects
subjects with AEs of special interest (strain on the heart or bone fractures) ([8]; balaglitazone 10 mg group): 10%
subjects who withdrew due to an AE ([8]; balaglitazone 10 mg group): 16%
percentage of serious adverse events ([8]; balaglitazone 20 mg group): 11%
subjects reporting adverse events ([8]; balaglitazone 20 mg group, out of 99 subjects): 77 subjects
subjects with AEs of special interest (strain on the heart or bone fractures) ([8]; balaglitazone 20 mg group): 19%
subjects who withdrew due to an AE ([8]; balaglitazone 20 mg group): 17%
number of fractures observed ([8]; balaglitazone 20 mg group, the only fracture in the study): one
